As a reminder, the inhibition is the relative decrease from the control value, in per cent. In general, IC50 refers to the concentration that gives 50% inhibition. For orientation: EC50 means the concentration giving half of the maximal effect.

Assay [1] has as its target T1, Substance-K receptor (Homo sapiens) (UniProt P21452).
T1 sequence (whole entry): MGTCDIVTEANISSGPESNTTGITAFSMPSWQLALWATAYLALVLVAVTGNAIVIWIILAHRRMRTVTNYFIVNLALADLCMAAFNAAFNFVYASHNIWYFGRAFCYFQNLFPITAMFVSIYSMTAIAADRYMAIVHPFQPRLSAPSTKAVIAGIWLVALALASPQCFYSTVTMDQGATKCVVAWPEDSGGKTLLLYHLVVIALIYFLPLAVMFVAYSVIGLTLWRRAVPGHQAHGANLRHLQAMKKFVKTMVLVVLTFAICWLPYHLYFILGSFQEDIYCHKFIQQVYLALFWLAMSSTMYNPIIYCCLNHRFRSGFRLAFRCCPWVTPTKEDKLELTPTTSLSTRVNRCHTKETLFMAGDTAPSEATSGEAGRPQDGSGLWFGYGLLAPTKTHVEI
As to the kind of experiment: Displacement of [125I]-NKA from NK2R (unknown origin) transfected in CHO cells at 10 uM by gamma counting analysis. It is filed as cell-based.

For assay [2], the target named is Substance-P receptor (Homo sapiens) (UniProt P25103). As to the kind of experiment: Displacement of [125I]-BH-SP from NK1R (unknown origin) transfected in CHO cells at 10 uM by gamma counting analysis. The class given is cell-based. (Displacement assays read how much labelled ligand stays bound in the presence of the test substance.)
Chain of Substance-P receptor (Homo sapiens) (P25103 whole entry): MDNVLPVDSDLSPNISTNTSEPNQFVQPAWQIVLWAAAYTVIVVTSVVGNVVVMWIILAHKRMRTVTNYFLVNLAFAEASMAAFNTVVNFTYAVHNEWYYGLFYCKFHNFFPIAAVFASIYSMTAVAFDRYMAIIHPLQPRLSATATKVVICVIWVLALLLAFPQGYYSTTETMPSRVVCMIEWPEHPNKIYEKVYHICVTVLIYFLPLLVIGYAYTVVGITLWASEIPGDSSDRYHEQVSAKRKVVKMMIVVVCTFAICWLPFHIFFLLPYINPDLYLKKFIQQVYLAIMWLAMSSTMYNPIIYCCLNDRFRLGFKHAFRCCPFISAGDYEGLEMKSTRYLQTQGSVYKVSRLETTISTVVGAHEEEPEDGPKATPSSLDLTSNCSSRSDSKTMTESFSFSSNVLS
The target of assay [3] is T2, Neuromedin-K receptor (Homo sapiens, UniProt P29371).
T2 sequence (P29371 whole entry): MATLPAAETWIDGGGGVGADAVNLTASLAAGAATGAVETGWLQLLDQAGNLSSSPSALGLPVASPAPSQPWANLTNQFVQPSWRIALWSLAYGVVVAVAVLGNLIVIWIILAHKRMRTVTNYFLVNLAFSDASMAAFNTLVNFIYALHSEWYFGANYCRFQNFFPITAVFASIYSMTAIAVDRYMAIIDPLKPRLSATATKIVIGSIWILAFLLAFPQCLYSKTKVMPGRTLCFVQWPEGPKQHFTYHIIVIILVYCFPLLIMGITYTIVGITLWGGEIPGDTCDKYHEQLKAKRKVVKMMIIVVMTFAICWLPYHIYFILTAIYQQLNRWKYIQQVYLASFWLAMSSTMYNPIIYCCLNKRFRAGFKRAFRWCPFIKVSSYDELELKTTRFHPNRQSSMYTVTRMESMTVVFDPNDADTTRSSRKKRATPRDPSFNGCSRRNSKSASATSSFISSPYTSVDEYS
As to the kind of experiment: Displacement of ([125I]-His3, MePhe7)-NKB from NK3R (unknown origin) transfected in CHO cells by gamma counting analysis. The class given is cell-based.

Assay [4] concerns the target T2, Neuromedin-K receptor. As to the kind of experiment: Agonist activity at NK3R (unknown origin) transfected in CHO cells assessed as calcium influx […]. It is filed as functional, cell-based.

Residues, ends and D or L forms follow the SMILES beside them.

With `CSCC[C@H](NC(=O)[C@H](CC(C)C)NC(=O)CNC(=O)[C@H](Cc1ccccc1)N(C)C(=O)[C@H](Cc1ccccc1)NC(=O)[C@H](C)NC(=O)[C@H](CC(=O)O)NC(=O)[C@H](Cc1cnc[nH]1)NC(=O)[C@H](CCSC)NC(=O)[C@@H](N)CC(=O)O)C(N)=O` (HELM PEPTIDE1{D.M.H.D.A.F.[meF].G.L.M.[am]}$$$$V2.0), the results for the inhibition in assay [1] and in assay [2] were 33% and under 10%, respectively. This compound came in with an IC50 on Neuromedin-K receptor [3] of 4.4 nM. In addition, at Neuromedin-K receptor [4], the EC50 turned out to be 0.012 nM.
Regarding `CSCC[C@H](NC(=O)[C@H](CC(C)C)NC(=O)CNC(=O)[C@H](Cc1ccccc1)N(C)C(=O)[C@H](Cc1ccccc1)NC(=O)[C@H](CC(=O)O)NC(=O)[C@H](CC(=O)O)NC(=O)[C@H](Cc1cnc[nH]1)NC(=O)[C@H](CCSC)NC(=O)[C@@H](N)CC(=O)O)C(N)=O` (HELM PEPTIDE1{D.M.H.D.D.F.[meF].G.L.M.[am]}$$$$V2.0), the inhibition in assay [1] and in assay [2] was under 10% throughout. The compound also returned an IC50 on Neuromedin-K receptor [3] of 38 nM. Besides, the EC50 on Neuromedin-K receptor [4] amounted to 0.04 nM.
As for `CSCC[C@H](NC(=O)[C@H](CC(C)C)NC(=O)CNC(=O)[C@H](Cc1ccccc1)N(C)C(=O)[C@H](Cc1ccccc1)NC(=O)[C@H](CCC(=O)O)NC(=O)[C@H](CC(=O)O)NC(=O)[C@H](Cc1cnc[nH]1)NC(=O)[C@H](CCSC)NC(=O)[C@@H](N)CC(=O)O)C(N)=O` (HELM PEPTIDE1{D.M.H.D.E.F.[meF].G.L.M.[am]}$$$$V2.0), the inhibition in assay [1] and in assay [2] was under 10% each time. Further, the IC50 on Neuromedin-K receptor [3] stood at 7.5 nM. In addition, at Neuromedin-K receptor [4], the EC50 was determined as 0.024 nM.
With `CSCC[C@H](NC(=O)[C@H](CC(C)C)NC(=O)CNC(=O)[C@H](Cc1ccccc1)N(C)C(=O)[C@H](Cc1ccccc1)NC(=O)[C@H](Cc1ccccc1)NC(=O)[C@H](CC(=O)O)NC(=O)[C@H](Cc1cnc[nH]1)NC(=O)[C@H](CCSC)NC(=O)[C@@H](N)CC(=O)O)C(N)=O` (HELM PEPTIDE1{D.M.H.D.F.F.[meF].G.L.M.[am]}$$$$V2.0), the inhibition in assay [1] was 57%; in assay [2], under 10%. Moreover, on Neuromedin-K receptor [3], the IC50 amounted to 3 nM. At Neuromedin-K receptor [4], the EC50 is 0.013 nM.
For the compound `CSCC[C@H](NC(=O)[C@H](CC(C)C)NC(=O)CNC(=O)[C@H](Cc1ccccc1)N(C)C(=O)[C@H](Cc1ccccc1)NC(=O)CNC(=O)[C@H](CC(=O)O)NC(=O)[C@H](Cc1cnc[nH]1)NC(=O)[C@H](CCSC)NC(=O)[C@@H](N)CC(=O)O)C(N)=O` (HELM PEPTIDE1{D.M.H.D.G.F.[meF].G.L.M.[am]}$$$$V2.0), the inhibition in assay [1] was 22%; in assay [2] it was under 10%. Besides, the IC50 on Neuromedin-K receptor [3] came to 13 nM. Further, the EC50 on Neuromedin-K receptor [4] is 0.036 nM.
In the case of `CSCC[C@H](NC(=O)[C@H](CC(C)C)NC(=O)CNC(=O)[C@H](Cc1ccccc1)N(C)C(=O)[C@H](Cc1ccccc1)NC(=O)[C@H](Cc1cnc[nH]1)NC(=O)[C@H](CC(=O)O)NC(=O)[C@H](Cc1cnc[nH]1)NC(=O)[C@H](CCSC)NC(=O)[C@@H](N)CC(=O)O)C(N)=O` (HELM PEPTIDE1{D.M.H.D.H.F.[meF].G.L.M.[am]}$$$$V2.0), the inhibition was 47% in assay [1] and under 10% in assay [2]. At Neuromedin-K receptor [3], this compound registered an IC50 of 5.9 nM. Besides, on Neuromedin-K receptor [4], the EC50 was 0.017 nM.
The corresponding values for `CC[C@H](C)[C@H](NC(=O)[C@H](CC(=O)O)NC(=O)[C@H](Cc1cnc[nH]1)NC(=O)[C@H](CCSC)NC(=O)[C@@H](N)CC(=O)O)C(=O)N[C@@H](Cc1ccccc1)C(=O)N(C)[C@@H](Cc1ccccc1)C(=O)NCC(=O)N[C@@H](CC(C)C)C(=O)N[C@@H](CCSC)C(N)=O` (HELM PEPTIDE1{D.M.H.D.I.F.[meF].G.L.M.[am]}$$$$V2.0) are 35%, under 10%, 4 nM and 0.06 nM.
On to `CSCC[C@H](NC(=O)[C@H](CC(C)C)NC(=O)CNC(=O)[C@H](Cc1ccccc1)N(C)C(=O)[C@H](Cc1ccccc1)NC(=O)[C@H](CCCN=C(N)N)NC(=O)[C@H](CC(=O)O)NC(=O)[C@H](Cc1cnc[nH]1)NC(=O)[C@H](CCSC)NC(=O)[C@@H](N)CC(=O)O)C(N)=O` (HELM PEPTIDE1{D.M.H.D.R.F.[meF].G.L.M.[am]}$$$$V2.0), for which the IC50 on Neuromedin-K receptor [3] is 2.5 nM. At Neuromedin-K receptor [4], the EC50 worked out at 0.08 nM.
As to `CSCC[C@H](NC(=O)[C@H](CC(C)C)NC(=O)CNC(=O)[C@H](Cc1ccccc1)N(C)C(=O)[C@H](Cc1ccccc1)NC(=O)[C@H](CCCNC(=N)N)NC(=O)[C@H](CC(=O)O)NC(=O)[C@H](Cc1cnc[nH]1)NC(=O)[C@H](CCSC)NC(=O)[C@@H](N)CC(=O)O)C(N)=O` (HELM PEPTIDE1{D.M.H.D.R.F.[meF].G.L.M.[am]}$$$$V2.0), the inhibition in assay [1] worked out at 62%; in assay [2] it was 60%.
As to `CSCC[C@H](NC(=O)[C@H](CC(C)C)NC(=O)CNC(=O)[C@H](Cc1ccccc1)N(C)C(=O)[C@H](Cc1ccccc1)NC(=O)[C@H](CC(=O)O)NC(=O)[C@H](CC(=O)O)NC(=O)[C@@H]1CCCN1C(=O)[C@H](CCCN=C(N)N)NC(=O)[C@@H]1CCCN1C(=O)[C@@H](N)CCCCN)C(N)=O` (HELM PEPTIDE1{K.P.R.P.D.D.F.[meF].G.L.M.[am]}$$$$V2.0), the IC50 on Neuromedin-K receptor [3] amounted to 31 nM. Moreover, at Neuromedin-K receptor [4], the EC50 is 5.04 nM.
As for `CSCC[C@H](NC(=O)[C@H](CC(C)C)NC(=O)CNC(=O)[C@H](Cc1ccccc1)N(C)C(=O)[C@H](Cc1ccccc1)NC(=O)[C@H](CC(=O)O)NC(=O)[C@H](CC(=O)O)NC(=O)[C@@H]1CCCN1C(=O)[C@H](CCCNC(=N)N)NC(=O)[C@@H]1CCCN1C(=O)[C@@H](N)CCCCN)C(N)=O` (HELM PEPTIDE1{K.P.R.P.D.D.F.[meF].G.L.M.[am]}$$$$V2.0), the inhibition is under 10% in assay [1] and 26% in assay [2].
As to `CC[C@H](C)[C@H](NC(=O)[C@H](Cc1ccccc1)NC(=O)[C@H](C)NC(=O)[C@H](CC(=O)O)NC(=O)[C@H](CCCCN)NC(=O)[C@H](CO)NC(=O)[C@@H]1CCCN1C(=O)[C@@H]1CCC(=O)N1)C(=O)NCC(=O)N[C@@H](CC(C)C)C(=O)N[C@@H](CCSC)C(N)=O` [ELEDOISIN] (HELM PEPTIDE1{[Glp].P.S.K.D.A.F.I.G.L.M.[am]}$$$$V2.0), the inhibition amounted to 95% in assay [1] and 100% in assay [2]. The IC50 at Neuromedin-K receptor [3] is 96 nM.
Compound `CSCC[C@H](NC(=O)[C@H](CC(C)C)NC(=O)CNC(=O)[C@@H](NC(=O)[C@H](Cc1ccccc1)NC(=O)[C@H](CCC(N)=O)NC(=O)[C@H](CC(=O)O)NC(=O)[C@H](CO)NC(=O)[C@H](CCCCN)NC(=O)[C@@H]1CCCN1C(=O)[C@@H](NC(=O)[C@@H](N)CC(=O)O)C(C)C)C(C)C)C(N)=O` [KASSININ] came in with an IC50 at Neuromedin-K receptor [3] of 100 nM. Besides, the concentration for a half-maximal effect (EC50) at Neuromedin-K receptor [4] was 0.21 nM.
The corresponding values for `CSCC[C@H](NC(=O)[C@H](CC(C)C)NC(=O)CNC(=O)[C@H](Cc1ccc(O)cc1)NC(=O)[C@H](Cc1ccccc1)NC(=O)[C@H](CCCCN)NC(=O)[C@H](CC(N)=O)NC(=O)[C@@H]1CCCN1C(=O)[C@H](CC(=O)O)NC(=O)[C@H](C)NC(=O)[C@@H]1CCC(=O)N1)C(N)=O` [PHYSALAEMIN] are 1550 nM and 3.36 nM.
Take H-KPRPDQFYGLM-NH2: the inhibition in assay [1] came out at 95%; in assay [2], 101%.
Compound H-KPRPDQFYGLM-NH2 [BUFOKININ] returned an IC50 at Neuromedin-K receptor [3] of 2990 nM. For the same compound, at Neuromedin-K receptor [4], the EC50 was 10.7 nM.

For the origin of these results see ChEMBL document CHEMBL2346651, “Structure-activity relationship study of tachykinin peptides for the development of novel neurokinin-3 receptor selective agonists” (Bioorg Med Chem, 2013).
